Reference: patent US20200268762A1, “7-SUBSTITUTED SULFONIMIDOYLPURINONE COMPOUNDS AND DERIVATIVES FOR THE TREATMENT AND PROPHYLAXIS OF LIVER CANCER” (Hoffmann-La Roche Inc., priority 2019, published 2020)
Entries after “also recorded” stand apart in the source; their conditions may differ.

How the values were obtained:
[1] = system: PD-L1 expression on tumor cells; assay: PD-L1 expression on tumor cells of iAST mice by flow cytometry; assay type: in vivo, mouse; conditions: day 12 after treatment start
Description: Tumors from iAST mice were treated as described in FIG. 1. […] For flow cytometry, tumors were excised and single cell suspensions obtained by mechanical processing and enzymatic digestion (DNAse 0.01%, Collagenase IV 1 mg/ml). Staining procedures started with Fc receptor blocking using 2.4G2 antibody clone (1:200 dilution, BD Bioscience), and the following antibodies (clones) were used to analyzed leukocyte infiltrate: CD45-FITC (30-F11, BioLegend) and CD11b-BUV737 (M1/70, BD Bioscience). Samples were acquired using a LSR Fortessa machine (BD Bioscience) and analyzed by FlowJo version 10 (Treestar).

[2] = system: Hep55.1c tumor bearing mice; assay: Transplanted Hep55.1c mouse model of hepatocellular carcinoma, tumor volume by μCT; assay type: in vivo, C57BL/6N mice; conditions: Hep55.1c intrahepatic tumors; 41-A 10 mg/kg weekly oral; anti-CD40 4 mg/kg single dose; vs vehicle
Description: Female C57BL/6N mice (Jackson Laboratories) were injected intra hepatically with 5×10^5 Hep55.1c tumor cell line together with Matrigel (Matrigel Basement Membrane Matrix, Corning Cat #354234) in a total volume of […] (10 μl cell suspension plus 10 μl Martigel). Tumor volume was monitored weekly using μCT (TomoScope Synergy Twin, CT Imaging GmbH) upon a single intravenous administration of contrasting agent Exitron 6000 (Viscovert). Imaging data were reconstructed by TomoScope software and analyzed using Osirix software. […] To compare to another agonistic, immune stimulating agent, a single dose of anti-CD40 antibody (4 mg/kg; clone FGK.45, BioXCell) was given. Data depicted are means±SEM for a minimum of n=9 animals per group.

[3] = system: Hep55.1c mouse model of hepatocellular carcinoma; assay: Hep55.1c tumor fragment transplantation model, survival; assay type: in vivo, C57BL/6N mice; conditions: alive on day 94 after tumor fragment transplantation; 41-A weekly oral, anti-PD-1 250 μg i.p. 8 doses
Description: Female C57BL/6N mice (Jackson Laboratories) were injected intra hepatically with 5×10^5 Hep55.1c tumor cell line together with Matrigel (Matrigel Basement Membrane Matrix, Corning Cat #354234) in a total volume of 20 μl (10 μl cell suspension plus 10 μl Martigel). After 3 weeks, animals were sacrificed and tumors excised from the liver. Excised tumors were cut into 1×1 mm^3 pieces and implanted into the liver of female C57BL/6N mice. Scout animals were sacrificed to determine the time point of treatment start at about 80 mm^3 tumor volume. […] 41-A was given weekly, while anti-PD-1 antibody treatment started one day after 41-A treatment and was continued every three to four days for 8 doses in total. Treatment with both agents was stopped after the last anti-PD-1 administration.

[4] = system: iAST mouse model of hepatocellular carcinoma; assay: iAST mouse model of hepatocellular carcinoma, tumor burden; conditions: iAST mice, day 12 after treatment start; 41-A 10 mg/kg once a week oral, Sorafenib 90 mg/kg daily
Description: Per group n=10 were analyzed by One-way ANOVA and Tukey correction shown as individual dots with means±SEM using GraphPad Prism software version 6.

## CCCN(C)C(=O)n1c(=O)n(Cc2ccc(Cl)cc2)c2nc([S@](=N)(=O)CC)nc(N)c21 [Example 41-A, 6-Amino-9-[(4-chlorophenyl)methyl]-2-[S(R)-ethylsulfonimidoyl]-N-methyl-8-oxo-N-propyl-purine-7-carboxamide]
[1]
  PD-L1 expression on tumor cells: induced PD-L1 expression on tumor cells
[1]; listed as compound 41-A
  PD-L1 expression on tumor cells: induces PD-L1 expression on tumor cells
[2]
  tumor growth (tumor volume): tumor stasis; also recorded: inhibition of tumor growth
[3]
  survival of mice: 5/10
[4]
  Examination of the liver for superficial tumor nodules (tumor nodule free): 0/10 tumor nodule free
